From patent US9790233B2, “Compositions and methods of modulating 15-PGDH activity” (CASE WESTERN RESERVE UNIVERSITY, priority 2012, dated 2017)
pIC50: −log10 of the molar value. Like-named read-outs stand apart in the source and are kept apart here.

Key:
[1] = system: 15-PGDH luciferase fusion construct in Vaco503 reporter cell line; experiment: 15-PGDH-luciferase fusion gene reporter induction, V503 cells; format: cell-based
[2] = system: 15-PGDH luciferase fusion construct in LS174T reporter cell line; experiment: 15-PGDH-luciferase fusion gene reporter induction, LS174T cells; format: cell-based; details: Homo sapiens
[3] = system: 15-PGDH luciferase fusion construct in V9m reporter cell line; experiment: 15-PGDH-luciferase fusion gene reporter induction, V9m cells; format: cell-based
15-PGDH protein = 15-PGDH protein (Homo sapiens (Human), UniProt P15428); experiment: Inhibition of enzymatic activity of recombinant 15-PGDH in vitro (tritium transfer from PGE2 or NADH fluorescence); format: biochemical; details: for inhibition at […]: read-out: Enzyme inhibition % ([…]), recombinant 15-PGDH, […] compound
15-PGDH protein, sequence (P15428 whole entry): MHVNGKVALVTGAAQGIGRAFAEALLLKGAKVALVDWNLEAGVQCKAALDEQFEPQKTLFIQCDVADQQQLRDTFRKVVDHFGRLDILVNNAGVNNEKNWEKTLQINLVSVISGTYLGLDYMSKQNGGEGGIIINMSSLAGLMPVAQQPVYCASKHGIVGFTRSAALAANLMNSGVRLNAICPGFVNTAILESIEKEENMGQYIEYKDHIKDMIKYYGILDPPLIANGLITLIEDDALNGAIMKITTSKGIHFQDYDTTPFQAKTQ

A549 cells [4] = experiment: PGE2 levels in the medium of IL1-beta stimulated A549 cells;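 on all read-outs here: PGE2 in the collected culture medium quantified by enzyme immunoassay (ELISA), with data drawn from three independent experiments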; format: cell-based; details: for Decrease PGE-2 (IL-1beta-A549, %): media of IL-1beta stimulated A549 cells; for rank of reduction in levels of PGE2 in the medium: FIG. 94
A549 cells [5] = experiment: Cellular toxicity on A549 cells (CellTiter-Glo); format: cell-based; design: Decrease Cell viability in A549 cell (%): concentration or dose not given beside the values; details: for Decrease Cell viability in A549 cell (%): A549 cells
[6] = system: 15-PGDH-luciferase fusion reporter in V9m, LS174T and V503 cells; experiment: 15-PGDH-luciferase fusion gene reporter induction, stated for the three cell line backgrounds together; format: cell-based
[7] = read-out: V503-3H9-7 reporter activity, % ([…]), […], Table 18, read-out: V503-3H9-7 reporter activity, % (2.5 μM)
[8] = read-out: V503-3H9-7 reporter activity, % ([…]), […], Table 18, read-out: V503-3H9-7 reporter activity, % (7.5 μM)
[9] = read-out: Ls174T-SC1 reporter activity, % ([…]), […], Table 18, read-out: Ls174T-SC1 reporter activity, % (2.5 μM)
[10] = read-out: Ls174T-SC1 reporter activity, % ([…]), […], Table 18, read-out: Ls174T-SC1 reporter activity, % (7.5 μM)
[11] = read-out: V9M-SC3 Reporter activity ([…]) (%), […], Table 18, read-out: V9M-SC3 Reporter activity (2.5 μM) (%)
[12] = Table 18, read-out: Enzyme inhibition % (7.5 μM)
[13] = read-out: V503-3H9-7 reporter activity, % ([…]), V503 reporter cells, […] compound, % induction of luciferase activity over basal level, read-out: V503-3H9-7 reporter activity, % (2.5 μM)
[14] = read-out: V503-3H9-7 reporter activity, % ([…]), V503 reporter cells, […] compound, % induction of luciferase activity over basal level, read-out: V503-3H9-7 reporter activity, % (7.5 μM)
[15] = read-out: Ls174T-SC1 reporter activity, % ([…]), LS174T reporter cells, […] compound, % induction of luciferase activity over basal level, read-out: Ls174T-SC1 reporter activity, % (2.5 μM)
[16] = read-out: Ls174T-SC1 reporter activity, % ([…]), LS174T reporter cells, […] compound, % induction of luciferase activity over basal level, read-out: Ls174T-SC1 reporter activity, % (7.5 μM)
[17] = read-out: V9M-SC3 Reporter activity ([…]) (%), V9m reporter cells, […] compound, % induction of luciferase activity over basal level, read-out: V9M-SC3 Reporter activity (2.5 μM) (%)
[18] = read-out: V9M-SC3 Reporter activity ([…]), %, V9m reporter cells, […] compound, % induction of luciferase activity over basal level, read-out: V9M-SC3 Reporter activity (7.5 μM), %
[19] = recombinant 15-PGDH in vitro, read-out: Enzyme inhibition (IC50)
[20] = read-out: V503 reporter activity ([…]), […], % increased luciferase activity over basal level, read-out: V503 reporter activity (2.5 uM)
[21] = read-out: V503 reporter activity ([…]), […], % increased luciferase activity over basal level, read-out: V503 reporter activity (7.5 uM)
[22] = read-out: LS174T reporter activity ([…]), […], % increased luciferase activity over basal level, read-out: LS174T reporter activity (2.5 uM)
[23] = read-out: LS174T reporter activity ([…]), […], % increased luciferase activity over basal level, read-out: LS174T reporter activity (7.5 uM)
[24] = read-out: V9M reporter activity ([…]), […], % increased luciferase activity over basal level, 100 = doubling, read-out: V9M reporter activity (2.5 uM)
[25] = read-out: V9M reporter activity ([…]), […], % increased luciferase activity over basal level, 100 = doubling, read-out: V9M reporter activity (7.5 uM)

Row | Structure (SMILES) | Decrease PGE-2 (IL-1beta-A549, %) (A549 cells [4]) [%] | activation at […] [1, 13] [%] | activation at […] [1, 14] [%] | activation at […] [2, 15] [%] | activation at […] [2, 16] [%] | activation at […] [3, 17] [%] | activation at […] [3, 18] [%] | further results
1 | COc1ccc(OC)c(N(CC(=O)Nc2ccc(C)cc2)S(=O)(=O)c2ccccc2)c1 [311333-86-5] | – | – | – | – | – | – | – | activation at […] [1, 7]: 102%; activation at […] [1, 8]: 131%; activation at […] [2, 9]: 30%; activation at […] [2, 10]: 53.4%; activation at […] [3, 11]: 53%; inhibition at […] (15-PGDH protein; [12]): 34%
2 | COc1ccc(NC(=O)CN(c2cc(OC)ccc2OC)S(=O)(=O)c2ccccc2)cc1 [333447-10-2] | – | – | – | – | – | – | – | activation at […] [1, 7]: 76.9%; activation at […] [1, 8]: 159%; activation at […] [2, 9]: 7.54%; activation at […] [2, 10]: 14.4%; percent induction of reporter activity over basal level at […] ([3]; read-out: V9M-SC3 Reporter activity % ([…]), 7.5 μM, Table 18): 10%; activation at […] [3, 11]: -0.5%; inhibition at […] (15-PGDH protein; Table 18, read-out: Enzyme inhibition % (2.5 μM)): 27%; inhibition at […] (15-PGDH protein; [12]): 46.5%
3 | CCCC[S@](C)(O)c1sc2nc(-c3cccs3)cc(-c3ccccc3)c2c1N [SW033291 isomer B] | – | – | – | – | – | – | – | pIC50 (15-PGDH protein; recombinant 15-PGDH in vitro, Table 2, read-out: Enzyme inhibition (IC50)): 9.12
4 | COc1ccc(OC)c(N(CC(=O)Nc2ccncc2)S(=O)(=O)c2ccccc2)c1 [SW202938] | −47.55 | 309 | 301 | 217 | 241 | 155 | 230 | pIC50 (15-PGDH protein; [19]): 5.57
5 | CCOC(=O)CN(c1cc(OC)ccc1OC)S(=O)(=O)c1ccccc1 [SW202951] | −1.01 | 97.5 | 131 | 34.3 | 47.6 | 4.56 | 17.7 | –
6 | COc1ccc(OC)c(N(CC(=O)Nc2ccc(C)nc2)S(=O)(=O)c2ccccc2)c1 [SW202988] | −16.79 | 125 | 258 | 40.5 | 125 | 7.36 | 54.4 | pIC50 (15-PGDH protein; [19]): ~5.00
7 | COc1ccc(S(=O)(=O)N(CC(=O)Nc2ccncc2)c2cc(OC)ccc2OC)cc1 [SW202989] | 69.40 | 208 | 214 | 159 | 171 | 188 | 184 | Decrease Cell viability in A549 cell (%) (A549 cells [5]): 30.59%; pIC50 (15-PGDH protein; [19]): 6.37
8 | COc1ccc(OC)c(N(CC(=O)Nc2cncnc2)S(=O)(=O)c2ccccc2)c1 [SW203683] | −3.41 | 104 | -41 | 3.76 | 210 | 137 | 191 | pIC50 (15-PGDH protein; [19]): ~5.15
9 | COc1ccc(OC)c(N(CC(=O)Nc2ccnnc2)S(=O)(=O)c2ccccc2)c1 [SW203685] | 17.84 | 122 | -33.2 | 22.3 | 254 | 100 | 204 | pIC50 (15-PGDH protein; [19]): 5.30
10 | COc1ccc(OC)c(N(CC(=O)Nc2nccs2)S(=O)(=O)c2ccccc2)c1 [SW203691] | 36.76 | 47.1 | 90 | 5.47 | 22 | 7.78 | 19.8 | Decrease Cell viability in A549 cell (%) (A549 cells [5]): 0.00%; inhibition at […] (15-PGDH protein; read-out: Enzyme inhibition % (7.5 μM)): 3.12%
11 | COc1ccc(OC)c(N(CC(=O)Nc2cccnc2)S(=O)(=O)c2ccc(F)cc2)c1 [SW203736] | 31.86 | 244 | 204 | 127 | 156 | 132 | 145 | lowering of PGE2 levels in media (A549 cells [4]): show activity in lowering PGE2; Decrease Cell viability in A549 cell (%) (A549 cells [5]): −3.06%
12 | COc1ccc(OC)c(N(CC(=O)Nc2cccnc2)S(=O)(=O)c2ccc(Br)cc2)c1 [SW203737] | 47.78 | 176 | 154 | 76.7 | 85.1 | 93.4 | 103 | lowering of PGE2 levels in media (A549 cells [4]): show activity in lowering PGE2; Decrease Cell viability in A549 cell (%) (A549 cells [5]): −2.56%
13 | CCCC[S+]([O-])c1sc2nc(-c3nccs3)ccc2c1N (stereo not drawn) [SW206992, 2-(butylsulfinyl)-6-(thiazol-2-yl)thieno[2,3-b]pyridin-3-amine] | – | – | – | – | – | – | – | exposure needed to induce maximal reporter induction ([6]; 24 hours, three cell line backgrounds): > 1000 nM; Concentration for Full Cell Line Reporter Induction ([6]; maximal induction of reporter, Table 3): >1 µM; compound concentration at maximal effect on PGE2 (A549 cells [4]; IL-1β 16 h, compound 8 h): 2.5 µM; effect on CellTitre-Glo levels (A549 cells [5]; 24 hours, concentrations of up to 10 uM): No effect on CellTitre-Glo levels; Toxicity (A549 cells [5]; concentration needed to decrease cell numbers in a cell culture assay, Table 3): >7.5 µM
14 | COc1ccc(S(=O)(=O)N(CC(=O)N2CCOCC2)c2cc(OC)ccc2OC)cc1 [SW207997] | – | 149 | 157 | 87.6 | 94.1 | 59.5 | 71 | rank of reduction in levels of PGE2 in the medium (A549 cells [4]; 100 nM drug): greatest reduction in levels of PGE2
15 | COc1ccc(S(=O)(=O)N(CC(=O)N2CCCCCC2)c2cc(OC)ccc2OC)cc1 [SW207998] | – | 144 | 147 | 65.2 | 77 | 53.4 | 58.9 | rank of reduction in levels of PGE2 in the medium (A549 cells [4]; 100 nM drug): greatest reduction in levels of PGE2
16 | COc1ccc(S(=O)(=O)N(CC(=O)N2CCCCC2)c2cc(OC)ccc2OC)cc1 [SW207999] | – | 124 | 110 | 98 | 123 | 128 | 124 | induction of 15-PGDH-luciferase reporter in cell lines (SW054384 analogues) ([6]; […] and […]): active in inducing the 15-PGDH-luciferase reporter
17 | CCCC[S+]([O-])c1sc2nc(-c3cccs3)nc(-c3ccccc3)c2c1N (stereo not drawn) [SW208067, 6-(butylsulfinyl)-4-phenyl-2-(thiophen-2-yl)thieno[2,3-d]pyrimidin-5-amine] | – | – | – | – | – | – | – | rank of PGE2 level in the medium (A549 cells [4]; 100 nM drug, FIG. 44): highest levels of PGE2; activation at […] [1, 20]: 94.3%; activation at […] [1, 21]: 79.6%; activation at […] [2, 22]: 94.3%; activation at […] [2, 23]: 79.6%; activation at […] [3, 24]: 122%; activation at […] [3, 25]: 108%
18 | CCCC[S+]([O-])c1ncccc1[N+](=O)[O-] (stereo not drawn) [SW208069, 2-(butylsulfinyl)-3-nitropyridine] | – | – | – | – | – | – | – | IC50 (15-PGDH protein; recombinant 15-PGDH in vitro, Table 2, cells printed in uM, read-out: Enzyme inhibition (IC50)): > 7.5 µM
19 | C[S+]([O-])c1sc2nc(-c3cccs3)cc(-c3ccccc3)c2c1N (stereo not drawn) [SW208079, 2-(methylsulfinyl)-4-phenyl-6-(thiophen-2-yl)thieno[2,3-b]pyridin-3-amine] | – | – | – | – | – | – | – | reporter induction in reporter cell lines [6]: marked loss of activity in inducing the cell line reporters; activation at […] [1, 20]: 85.3%; activation at […] [1, 21]: 61.8%; activation at […] [2, 22]: 53.4%; activation at […] [2, 23]: 43.8%; activation at […] [3, 24]: 36%; activation at […] [3, 25]: 32.8%; IC50 higher compared to SW033291 (15-PGDH protein; effect of carbon side chain length): over 60 fold
